Values of other authors as cited in patent publication US11998562B2 (priority 2021, dated 2024).
pIC50: −log10 of the molar value. “Also recorded” adds a separate entry of the source.

Legend:
SARS-CoV = conditions: HAE cells; read-out: IC50, inhibition of SARS-CoV replication
[1] = oral delivery

In the case of `CCC(CC)COC(=O)[C@H](C)N[P@](=O)(OC[C@H]1O[C@@](C#N)(c2ccc3c(N)ncnn23)[C@H](O)[C@@H]1O)Oc1ccccc1` [Remdesivir, 2-Ethylbutyl (2S)-2-{[(S)-{[(2R,3S,4R,5R)-5-(4-aminopyrrolo[2,1-f][1,2,4]triazin-7-yl)-5-cyano-3,4-dihydroxytetrahydrofuran-2-yl]methoxy}(phenoxy)phosphoryl]amino}propanoate], the pIC50 (SARS-CoV) is given as 7.16, the first-pass clearance [1] is given as “complete” and the solubility in water is given as “practically insoluble; also recorded: poorly water soluble”.
